Results taken from patent US20160128951A1, “PHARMACEUTICAL COMPOSITIONS OF FINGOLIMOD” (AIZANT DRUG RESEARCH SOLUTIONS PVT LTD, priority 2013, published 2016).

Assay: Stability study (impurities) at 40° C./75% RH for one week
Type: physicochemical
Description: Stability study was conducted for active ingredient, compositions of the present invention and comparative composition. The study was conducted at 40° C./75% RH for one week.

[1] = After one week at 40° C./75% RH, Sample (API)

CCCCCCCCc1ccc(CCC(N)(CO)CO)cc1.Cl [API, 2-amino-2-[2-(4-octylphenyl)ethyl]-propane-1,3-diol]
0.05 % w/w: Impurity 1 [1] | Total Impurities [1] | Impurity 1 (Initial, Sample) | Total Impurities (Initial, Sample)
